By Papp A→B is commonly meant the apparent permeability from the apical to the basolateral side of a cell layer. For orientation: efflux ratio means a quotient of directional permeabilities that is used to spot active efflux. One may read the Emax as the greatest response seen or fitted, relative to the assay's reference. What is called EC50 is the midpoint of the concentration-response curve. As usually defined, the Ki is the equilibrium dissociation constant of an inhibitor or competing ligand from its target. Higher therefore signals lower affinity. The fraction unbound is free concentration divided by total concentration. The Papp is a coefficient for how fast a substance crosses the barrier.

The source of these data is ChEMBL document CHEMBL3108690, “Discovery and characterization of a novel dihydroisoxazole class of α-amino-3-hydroxy-5-methyl-4-isoxazolepropionic acid (AMPA) receptor potentiators” (J Med Chem, 2013).

The source made the active and inactive calls. The rule behind the calls is not given here.

Data set [1] in a line: Apparent permeability from apical to basolateral side in MDCK cells at 2 uM by LC-MS/MS analysis. Type of data set: ADME, cell-based, Canis lupus familiaris. The note with it: dog.
The test system of a further data set is human MDR1. The data set is described as follows: Efflux ratio of apparent permeability from basolateral to apical side over apical to basolateral side in MDCK cells transfected with human MDR1 at 2 uM. Type of data set: ADME, cell-based, Canis lupus familiaris. The note with it: dog.
Data set [2] is filed under the species Mus musculus. Briefly: Positive allosteric modulation of AMPAR in mouse embryonic stem cell-derived neurons assessed as intracellular Ca2+ flux by FLIPR assay in presence of cyclothiazide relative to AMPA. Type of data set: cell-based. For orientation: Calcium assays in cells follow changes in intracellular calcium, usually with a dye or a luminescent sensor.

A short description of data set [3]: Positive allosteric modulation of AMPAR in mouse embryonic stem cell-derived neurons assessed as intracellular Ca2+ flux by FLIPR assay. Type of data set: cell-based.
The nature of data set [4]: Ratio of total drug level from brain to plasma in Sprague-Dawley rat at 0.2 mg/kg, sc qd. Also noted: dose 0.2 mg/kg, route subcutaneous. The following applies: read-out: BPR. The format is ADME, organism-based.
Data set [5] in a line: Therapeutic index, ratio of unbound concentration in brain required to cause convulsion in Sprague-Dawley rat at 0.32 to 0.56 mg/kg, sc to unbound concentration in brain required to cause reversal of MK-801-mediated increase in low delta component of local field potential in Sprague-Dawley rat at 0.003 mg/kg, iv administered as bolus dose. The format is organism-based. The following applies: read-out: TI.

The nature of data set [6]: Terminal half life in Sprague-Dawley rat brain at 0.2 mg/kg, sc qd. Type of data set: ADME, organism-based. The arrangement: dose 0.2 mg/kg, route subcutaneous. The note with it: read-out: beta t1/2 (converted).
Data set [7] can be described thus: Displacement of [3H]PF-04725379 from Sprague-Dawley rat AMPAR after 2 hrs by liquid scintillation counting analysis. On the technique in general: In a radioligand displacement assay an active substance lowers the binding of a labelled ligand.
In data set [8] the test system is Rattus norvegicus. The data set is described as follows: Reversal of MK-801-mediated increase in low delta component of local field potential in Sprague-Dawley rat at 0.001 mg/kg, iv administered as bolus dose measured after 5 mins. Type of data set: functional, organism-based. Also noted: dose 0.001 mg/kg.
Data set [9] deals with Rattus norvegicus. The data set is described as follows: Reversal of MK-801-mediated decrease in paired-pulse facilitation in Sprague-Dawley rat at 0.003 mg/kg, iv administered as bolus dose measured after 5 mins. Also noted: dose 0.003 mg/kg. The format is functional, organism-based.
Data set [10] has as its system Rattus norvegicus. Briefly: Reversal of MK-801-mediated increase in low delta component of local field potential in Sprague-Dawley rat at 0.003 mg/kg, iv administered as bolus dose measured after 5 mins. Type of data set: functional, organism-based. The arrangement: dose 0.003 mg/kg.
The test system of data set [11] is Rattus norvegicus. The data set is described as follows: Reversal of MK-801-mediated decrease in paired-pulse facilitation in Sprague-Dawley rat at 0.001 mg/kg, iv administered as bolus dose measured after 5 mins. The format is functional, organism-based. Also noted: dose 0.001 mg/kg.
The test system of data set [12] is Rattus norvegicus. The data set is described as follows: Toxicity in Sprague-Dawley rat assessed as induction of tremor at 0.32 to 0.56 mg/kg, sc measured at 10 mins. Type of data set: organism-based. The arrangement: dose 0.32-0.56 mg/kg, route subcutaneous. The following applies: in vivo.
Data set [13] has as its system Rattus norvegicus. The data set is described as follows: Toxicity in Sprague-Dawley rat assessed as induction of convulsion at 0.32 to 0.56 mg/kg, sc measured after 13 to 23 mins. The following applies: in vivo. The format is organism-based. The arrangement: route subcutaneous.
The test system of data set [14] is Mus musculus. The data set is described as follows: Induction of cGMP level in sc dosed CD-1 mouse cerebellum administered as qd measured after 0.5 hrs by EIA. Type of data set: functional, organism-based.
Data set [15] is described as follows: Fraction unbound in Sprague-Dawley rat brain at 0.01 mg/kg, iv. The arrangement: dose 0.01 mg/kg, route intravenous. The format is ADME, organism-based.
Data set [16] is described as follows: Fraction unbound in Sprague-Dawley rat plasma at 0.01 mg/kg, iv. The format is ADME, organism-based. Also noted: dose 0.01 mg/kg, route intravenous.
Data set [17] is described as follows: Ratio of free drug level from brain to plasma in Sprague-Dawley rat at 0.2 mg/kg, sc qd. Type of data set: ADME, organism-based. The arrangement: dose 0.2 mg/kg, route subcutaneous. The following applies: read-out: K(p,uu,brain).
Data set [18] can be described thus: Terminal half life in Sprague-Dawley rat plasma at 0.2 mg/kg, sc qd. The format is ADME, organism-based. The arrangement: dose 0.2 mg/kg, route subcutaneous. The following applies: read-out: beta t1/2 (converted).
A short description of data set [19]: Ratio of unbound concentration in brain required to cause induction of cGMP level in CD-1 mouse cerebellum at 0.32 mg/kg, sc over unbound concentration in brain required to cause reversal of MK-801-mediated increase in low delta component of local field potential in Sprague-Dawley rat at 0.003 mg/kg, iv administered as bolus dose. The format is functional.
Data set [20] concerns Mus musculus. Briefly: Ratio of unbound concentration in brain required to cause convulsion in CD-1 mouse at 0.32 to 0.56 mg/kg, sc to unbound concentration in brain required to cause induction of cGMP level in CD-1 mouse cerebellum at 0.32 mg/kg, sc.
The test system of data set [21] is Mus musculus. The data set is described as follows: Toxicity in CD-1 mouse assessed as induction of convulsion at 0.32 to 0.56 mg/kg, sc measured after 5 to 11 mins. Type of data set: organism-based. The note with it: in vivo. Also noted: route subcutaneous.
Data set [22] in a line: Apparent intrinsic clearance in human liver microsomes. Type of data set: ADME. The note with it: read-out: CLH(app). (In general: Microsomes from liver hold many membrane-bound enzymes, among them those of drug oxidation.)
Data set [23] in a line: Apparent permeability in MDCK cells. Type of data set: ADME, cell-based, Canis lupus familiaris. The following applies: dog.
The next data set deals with MDR1. Briefly: Efflux ratio of apparent permeability in MDCK cells expressing MDR1. The format is ADME, cell-based, Canis lupus familiaris. The note with it: dog.
The nature of data set [24]: Ratio of drug level from brain to plasma in CD-1 mouse at 0.1 mg/kg, sc qd measured after 0.5 hrs. The note with it: read-out: BPR. The format is ADME, organism-based. Also noted: dose 0.1 mg/kg, route subcutaneous.

`CC(C)S(=O)(=O)NCC1CC(c2ccc(-c3ccc(C#N)cc3)c(F)c2)=NO1` (racemic): in [1], the Papp A→B at 2 µM is 16.7 ×10⁻⁶ cm/s. Besides, the efflux ratio at 2 µM in the data set on human MDR1 came out at 1.4. In addition, in the data set listed under Mus musculus [2], the Emax came out at 124%. Also, the EC50 in data set [3] is 2640 nM.
Turning to `CC(C)S(=O)(=O)NC[C@@H]1CC(c2ccc(N3CCCC3)c(F)c2)=NO1`, the Kp in [4] was 1.04. The selectivity ratio in data set [5] was determined as 500. For the same compound, the half-life in [6] and in [18] was 24 min throughout. Besides, the Papp A→B at 2 µM in data set [1] was determined as 18.6 ×10⁻⁶ cm/s. The compound also came in with a Ki in data set [7] of under 24 nM. The result in the data set with Rattus norvegicus [8] and in the data set with Rattus norvegicus [11] was inactive. Further, the result in the data set with Rattus norvegicus [9] and in the data set with Rattus norvegicus [10] was Active. The efflux ratio at 2 µM in the data set with human MDR1 stood at 1.45. Further, the Activity result with Rattus norvegicus [12] was “Toxic”; in the data set on Rattus norvegicus [13], “Toxic”; in the data set with Mus musculus [14], “Dose-dependent effect”; with Mus musculus [21], “Toxic”. In the data set filed under Mus musculus [2], the Emax came out at 147%. Moreover, the fraction unbound came out at 0.014 in data set [15] and 0.027 in [16]. The EC50 in data set [3] is 123 nM. The Kp uu in [17] was determined as 0.54. Further, the Ratio in data set [19] is 100; in the data set with Mus musculus [20], 5.
As for `CC(=O)NC[C@@H]1CC(c2ccc(N3CCCC3)c(F)c2)=NO1`, in [22], the microsomal CLint came to 26 µL/min/mg. Besides, the Papp in [23] came out at 35 ×10⁻⁶ cm/s. The EC50 in data set [3] stood at 4400 nM. In addition, in the data set with MDR1, the efflux ratio worked out at 0.98.
Regarding `CC(C)S(=O)(=O)NCC1CC(c2ccc(-c3cccnc3)c(F)c2)=NO1` (racemic), the Papp A→B at 2 µM in data set [1] amounted to 22 ×10⁻⁶ cm/s. Further, the efflux ratio at 2 µM in the data set on human MDR1 turned out to be 0.84. In addition, in the data set listed under Mus musculus [2], the Emax came to 157%. For the same compound, in [3], the EC50 worked out at 294 nM.
`CC(C)S(=O)(=O)NCC1CC(c2cccc(F)c2)=NO1` (racemic): in data set [3], the EC50 was over 31600 nM.
Consider `CC(C)S(=O)(=O)NCC1CC(c2ccc(-c3ccccc3)c(F)c2)=NO1` (racemic), for which the Emax in the data set filed under Mus musculus [2] came out at 138%. In addition, the EC50 in [3] was determined as 3210 nM.
Turning to `CC(C)S(=O)(=O)NCC1CC(c2ccc(N3CCCC3)c(F)c2)=NO1` (racemic), the Emax in the data set filed under Mus musculus [2] was determined as 128%. Besides, in data set [3], the EC50 was 155 nM.
As to `CC(=O)N[C@H]1CCN(c2ccc(C3=NO[C@H](CNS(=O)(=O)C(C)C)C3)cc2F)C1`, in data set [24], the Kp at 0.5 h was determined as 0.03. Moreover, the Papp A→B at 2 µM in data set [1] is 3.93 ×10⁻⁶ cm/s. Also, the efflux ratio at 2 µM with human MDR1 is 12.1. In the data set listed under Mus musculus [2], the Emax was 143%. The EC50 in data set [3] was under 10 nM.
With `CC(C)S(=O)(=O)NC[C@@H]1CC(c2ccc(-c3ccccc3C#N)c(F)c2)=NO1`, in data set [1], the Papp A→B at 2 µM came out at 29.1 ×10⁻⁶ cm/s. The compound also gave a Ki in data set [7] of 24 nM. The efflux ratio at 2 µM in the data set with human MDR1 was found to be 1.18. The EC50 in data set [3] was under 10 nM.
As for `CC(C)S(=O)(=O)NCC1CC(c2ccc(-c3ccccc3C#N)c(F)c2)=NO1` (racemic), in data set [1], the Papp A→B at 2 µM amounted to 12.9 ×10⁻⁶ cm/s. Further, the efflux ratio at 2 µM in the data set on human MDR1 was found to be 1.16. The Emax in the data set filed under Mus musculus [2] came out at 152%. Moreover, the EC50 in [3] is 86.9 nM.
For `CC(C)S(=O)(=O)NCC1CC(c2ccc(-c3cccc(C#N)c3)c(F)c2)=NO1` (racemic), the Papp A→B at 2 µM in data set [1] is 15.1 ×10⁻⁶ cm/s. Besides, in the data set on human MDR1, the efflux ratio at 2 µM worked out at 1.17. For the same compound, in the data set listed under Mus musculus [2], the Emax worked out at 156%. Besides, the EC50 in data set [3] was 1850 nM.
For `CC(C)S(=O)(=O)NCC1CC(c2ccc(N3CCCC3)cc2)=NO1` (racemic), the efflux ratio at 2 µM with human MDR1 came to 0.89. Further, the Emax in the data set filed under Mus musculus [2] stood at 169%. The EC50 in data set [3] is 253 nM.
`CC(C)S(=O)(=O)NC[C@H]1CC(c2ccc(N3CCCC3)c(F)c2)=NO1`: affinity in [7] was put at a Ki of 5760 nM. Moreover, in the data set on human MDR1, the efflux ratio at 2 µM amounted to 1.6. Besides, the Emax in the data set filed under Mus musculus [2] is 114%. The EC50 in data set [3] came to 4690 nM.
